Results: ChEMBL document CHEMBL3751732 (Bioorg Med Chem Lett, 2016)
Activity calls are given as the source filed them. The calls are words filed in the database; no cut-off is given here.

Columns and labels:
Histamine H4 receptor [1] = biological target: T1, Histamine H4 receptor (Homo sapiens, UniProt Q9H3N8); assay: Antagonist activity at human histamine 4 receptor expressed in Sf9 cell membranes co-expressing Galphai2 and Gbeta1gamma2 assessed as [35S]GTPgammaS binding by scintillation counting relative to control histamine; format: functional
Histamine H2 receptor = Histamine H2 receptor (Homo sapiens, UniProt P25021); assay: Displacement of [3H]UR-DE257 from human histamine 2 receptor expressed in Sf9 cell membranes by liquid scintillation counting
Histamine H4 receptor [2] = biological target: T1, Histamine H4 receptor; assay: Displacement of [3H]histamine from human histamine 4 receptor expressed in Sf9 cell membranes by liquid scintillation counting
Histamine H1 receptor = Histamine H1 receptor (Homo sapiens, UniProt P35367); assay: Displacement of [3H]mepyramine from human histamine 1 receptor expressed in Sf9 cell membranes by liquid scintillation counting
Histamine H4 receptor [3] = biological target: T1, Histamine H4 receptor; assay: Antagonist activity at human histamine 4 receptor expressed in Sf9 cell membranes co-expressing Galphai2 and Gbeta1gamma2 assessed as [35S]GTPgammaS binding by scintillation counting; format: functional
Histamine H3 receptor = Histamine H3 receptor (Homo sapiens, UniProt Q9Y5N1); assay: Displacement of [3H]Nalpha-methylhistamine from human histamine 3 receptor expressed in Sf9 cell membranes by liquid scintillation counting
Histamine H3 receptor, sequence (Q9Y5N1 whole entry): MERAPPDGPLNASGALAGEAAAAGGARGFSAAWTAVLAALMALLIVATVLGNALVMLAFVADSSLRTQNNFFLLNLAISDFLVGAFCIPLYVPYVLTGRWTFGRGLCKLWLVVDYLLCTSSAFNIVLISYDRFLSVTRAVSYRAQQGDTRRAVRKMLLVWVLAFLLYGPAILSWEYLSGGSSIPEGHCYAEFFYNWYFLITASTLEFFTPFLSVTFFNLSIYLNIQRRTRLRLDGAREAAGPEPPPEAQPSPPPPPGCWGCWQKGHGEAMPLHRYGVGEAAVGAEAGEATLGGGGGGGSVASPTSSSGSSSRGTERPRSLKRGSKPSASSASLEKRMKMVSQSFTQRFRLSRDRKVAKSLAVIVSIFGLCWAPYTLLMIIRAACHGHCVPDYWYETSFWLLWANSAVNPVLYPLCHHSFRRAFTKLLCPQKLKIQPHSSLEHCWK

Histamine H1 receptor, sequence (P35367 whole entry): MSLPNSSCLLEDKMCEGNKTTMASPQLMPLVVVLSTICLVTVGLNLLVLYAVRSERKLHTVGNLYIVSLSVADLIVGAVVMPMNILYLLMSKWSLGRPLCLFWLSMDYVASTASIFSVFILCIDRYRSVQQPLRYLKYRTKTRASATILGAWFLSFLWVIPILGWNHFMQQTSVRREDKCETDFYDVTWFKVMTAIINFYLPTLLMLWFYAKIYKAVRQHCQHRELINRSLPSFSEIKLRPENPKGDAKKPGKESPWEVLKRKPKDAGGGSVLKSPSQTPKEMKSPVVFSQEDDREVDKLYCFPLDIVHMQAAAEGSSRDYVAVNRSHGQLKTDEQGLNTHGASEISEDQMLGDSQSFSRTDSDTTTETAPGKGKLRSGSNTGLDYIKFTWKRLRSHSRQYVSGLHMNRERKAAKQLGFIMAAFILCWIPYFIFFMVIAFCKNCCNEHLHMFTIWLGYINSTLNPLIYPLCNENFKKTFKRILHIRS
Histamine H2 receptor, sequence (P25021 whole entry): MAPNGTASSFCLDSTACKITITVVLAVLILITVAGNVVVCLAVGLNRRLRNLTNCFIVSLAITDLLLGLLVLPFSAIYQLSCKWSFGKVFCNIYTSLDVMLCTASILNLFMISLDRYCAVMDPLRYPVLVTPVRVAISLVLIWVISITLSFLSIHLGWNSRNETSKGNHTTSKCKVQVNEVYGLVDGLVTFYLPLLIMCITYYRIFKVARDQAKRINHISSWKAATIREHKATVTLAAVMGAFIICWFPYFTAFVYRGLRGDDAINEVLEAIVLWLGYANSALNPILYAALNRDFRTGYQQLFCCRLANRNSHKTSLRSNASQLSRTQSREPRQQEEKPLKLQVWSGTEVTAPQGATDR

| Ki (Histamine H4 receptor [2]) [µM] | Ki (Histamine H1 receptor) [µM] | Structure (SMILES) | also measured |
| --- | --- | --- | --- |
| 1.58 | 2.09 | CN1CCN(c2nc(NCc3ccccc3)nc3c2CCc2ccccc2-3)CC1 | Ratio (Histamine H4 receptor [1]): -1.01; Ki (Histamine H2 receptor): 6.92 µM; EC50 (Histamine H4 receptor [3]): 0.933 µM; Ki (Histamine H3 receptor): 6.03 µM |
| – | 0.55 | CN1CCN(c2nc(NCc3cccs3)c3cc(Cl)ccc3n2)CC1 | – |
| 36.3 | 1.95 | CN1CCN(c2nc(NCCc3ccccc3)cc(-c3ccccc3)n2)CC1 | – |
| 13.8 | 1.07 | COc1ccc(CNc2nc3c(c(N4CCN(C)CC4)n2)-c2ccccc2CC3)cc1 | – |
| 4.27 | 5.75 | COc1ccc(CNc2nc3c(c(N4CCN(C)CC4)n2)CCc2ccccc2-3)cc1 | – |
| – | 0.00832 | CN1CCN(C2=Nc3ccc(Cl)cc3Oc3ccccc32)CC1 | – |
| 11 | 1.95 | CN1CCN(c2nc(NCc3ccc(F)cc3)nc3c2CCc2ccccc2-3)CC1 | – |
| 7.76 | 1.17 | CN1CCN(c2nc3c(c(N4CCN(C)CC4)n2)-c2ccccc2CC3)CC1 | – |
| 26.3 | 1.91 | CN1CCN(c2nc(NCc3ccccc3)nc3c2-c2ccccc2CC3)CC1 | – |
| – | – | COc1ccc(CNc2cc(-c3ccccc3)nc(N(C)C)n2)cc1 | pKi (Histamine H4 receptor [2]): inactive; pKi (Histamine H1 receptor): inactive |
| 72.4 | 4.17 | COc1ccc(CNc2cc(-c3ccccc3)nc(N3CCN(C)CC3)n2)cc1 | – |
| 15.1 | 8.13 | CN1CCN(c2nc(NCCc3ccccc3)c3c(n2)-c2ccccc2CC3)CC1 | – |
| 20 | 3.39 | Cc1ccc(CNc2nc3c(c(N4CCN(C)CC4)n2)CCc2ccccc2-3)cc1 | – |
| 31.6 | 2.51 | CN1CCN(c2nc(NCc3ccccc3)cc(-c3ccccc3)n2)CC1 | – |
| 6.76 | 1.86 | CN1CCN(c2nc(NCCc3ccccc3)nc3c2-c2ccccc2CC3)CC1 | – |
| 0.186 | 9.12 | CN1CCN(c2nc(N)nc3c2CCc2ccccc2-3)CC1 | Ratio (Histamine H4 receptor [1]): -0.47; Ki (Histamine H2 receptor): 31.6 µM; EC50 (Histamine H4 receptor [3]): 0.295 µM; Ki (Histamine H3 receptor): 9.77 µM |
| 1.74 | 5.25 | COc1ccc(CNc2nc(-c3ccccc3)cc(N3CCN(C)CC3)n2)cc1 | – |
| 0.955 | 1.12 | CN1CCN(c2cc(-c3ccccc3)nc(NCc3ccccc3)n2)CC1 | Ratio (Histamine H4 receptor [1]): -1.27; Ki (Histamine H2 receptor): 10.2 µM; EC50 (Histamine H4 receptor [3]): 0.912 µM; Ki (Histamine H3 receptor): 2.51 µM |
| – | – | CN(C)c1nc(NCCc2ccccc2)cc(-c2ccccc2)n1 | pKi (Histamine H4 receptor [2]): inactive; pKi (Histamine H1 receptor): inactive |
| 14.5 | 0.891 | CN1CCN(c2nc(NCc3ccccc3)c3c(n2)-c2ccccc2CC3)CC1 | – |
| 19.5 | 6.31 | COc1ccc(CNc2nc(N3CCN(C)CC3)nc3c2CCc2ccccc2-3)cc1-c1ccc(Cl)cc1 | – |
| 9.77 | 3.31 | CN1CCN(c2cc(-c3ccccc3)nc(NCCc3ccccc3)n2)CC1 | – |
| 9.12 | 9.33 | CN1CCN(c2nc(NCCc3ccccc3)nc3c2CCc2ccccc2-3)CC1 | – |
